Source: patent US12440496B2, “Natriuretic peptide receptor a agonists useful for the treatment of cardiometabolic diseases, kidney disease and diabetes” (Merck Sharp & Dohme LLC, priority 2019, dated 2025)

Target: T1, hNPRA (Homo sapiens, UniProt P16066)
T1 construct: expressed in transfected cells
T1 sequence (P16066 33-1061): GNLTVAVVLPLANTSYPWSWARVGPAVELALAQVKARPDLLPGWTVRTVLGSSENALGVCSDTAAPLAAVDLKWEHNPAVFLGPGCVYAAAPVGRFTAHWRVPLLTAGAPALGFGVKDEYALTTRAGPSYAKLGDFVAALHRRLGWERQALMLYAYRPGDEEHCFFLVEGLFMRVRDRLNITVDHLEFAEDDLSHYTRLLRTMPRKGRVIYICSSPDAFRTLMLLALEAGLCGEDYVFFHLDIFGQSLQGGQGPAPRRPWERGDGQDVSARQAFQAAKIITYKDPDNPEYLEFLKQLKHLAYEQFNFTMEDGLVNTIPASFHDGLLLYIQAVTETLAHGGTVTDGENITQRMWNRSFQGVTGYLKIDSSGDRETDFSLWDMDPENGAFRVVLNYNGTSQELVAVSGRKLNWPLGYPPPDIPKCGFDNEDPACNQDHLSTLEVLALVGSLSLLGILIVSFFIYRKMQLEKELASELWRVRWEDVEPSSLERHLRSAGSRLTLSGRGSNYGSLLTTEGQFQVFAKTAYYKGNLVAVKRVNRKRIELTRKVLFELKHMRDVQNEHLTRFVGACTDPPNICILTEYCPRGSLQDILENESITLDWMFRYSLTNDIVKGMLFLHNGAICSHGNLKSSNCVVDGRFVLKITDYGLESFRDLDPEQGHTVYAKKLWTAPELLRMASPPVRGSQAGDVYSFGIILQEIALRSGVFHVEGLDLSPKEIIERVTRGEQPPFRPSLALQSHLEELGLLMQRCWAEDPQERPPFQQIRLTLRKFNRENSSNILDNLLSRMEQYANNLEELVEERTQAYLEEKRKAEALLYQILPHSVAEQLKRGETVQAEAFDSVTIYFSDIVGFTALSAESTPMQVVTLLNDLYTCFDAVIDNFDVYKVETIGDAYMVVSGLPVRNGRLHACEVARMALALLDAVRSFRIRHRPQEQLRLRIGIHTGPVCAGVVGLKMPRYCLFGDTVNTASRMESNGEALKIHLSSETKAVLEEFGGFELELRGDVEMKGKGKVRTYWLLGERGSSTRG
Experiment: NPRA Functional Cell Assay (cGMP HTRF, NPRA HEK JumpIn stable cells)
Assay type: cell-based
Conditions: cGMP production, 1 hour at 37° C., 10-point dose response
Method in brief: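 cGMP HTRF read-out after 1 hour compound treatment at 37° C. of human NPRA-expressing HEK JumpIn cells, 1500 cells/well, in buffer with phosphodiesterase inhibitors IBMX and RO20 (100 uM each). Signal converted to [cGMP] by calibration curve; EC50s fitted by 4-parameter logistic; 50 nM h-ANP as positive response.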

Compound | EC50
CN(C)S(=O)(=O)Nc1ccc([C@@H](CCN2CC[C@H]2CO)NC(=O)c2nc3cc4c(nc3s2)CC[C@H](C(C)(C)C)C4)cn1 (racemic) [Example 213, rac-(7S)-7-tert-butyl-N-[rac-(1R)-1-[6-(dimethylsulfamoylamino)-3-pyridyl]-3-[rac-(2S)-2-(hydroxymethyl)azetidin-1-ium-1-yl]propyl]-5,6,7,8-tetrahydrothiazolo[5,4-b]quinoline-2-carboxamide; 2,2,2-trifluoroacetate] | 1.01 µM
CC(C)(C)[C@H]1CCc2nc3sc(C(=O)N[C@H](CCN4CCC(C(F)F)CC4)c4ccc(-c5ccc(=O)[nH]c5)cc4)cc3cc2C1 (racemic) [Example 60, rac-(6S)-6-tert-butyl-N-[rac-(1R)-3-[4-(difluoromethyl)piperidin-1-ium-1-yl]-1-[4-(6-oxo-1H-pyridin-3-yl)phenyl]propyl]-5,6,7,8-tetrahydrothieno[2,3-b]quinoline-2-carboxamide;formate] | 1.01 µM
CC(C)[C@]1(F)CCc2nc3sc(C(=O)N[C@H](CCN4CCC(C(=O)O)CC4)c4ccc(-c5ccnnc5)nc4)nc3cc2C1 [Example 270, 1-((R)-3-((S)-7-fluoro-7-isopropyl-5,6,7,8-tetrahydrothiazolo[5,4-b]quinoline-2-carboxamido)-3-(6-(pyridazin-4-yl)pyridin-3-yl)propyl)piperidine-4-carboxylic acid] | 1.21 µM
CC(C)(C)[C@H]1CCc2nc3sc(C(=O)N[C@H](CCN4CCC(O)CC4)c4cccc(C(=O)NC5CCNC5=O)c4)nc3cc2C1 (mixture of isomers) [Example 154, rac-(7S)-7-tert-butyl-N-[rac-(1R)-3-(4-hydroxy-1-piperidyl)-1-[3-[(2-oxopyrrolidin-3-yl)carbamoyl]phenyl]propyl]-5,6,7,8-tetrahydrothiazolo[5,4-b]quinoline-2-carboxamide] | 0.721 µM
CC(C)(C)[C@H]1CCc2nc3sc(C(=O)N[C@H](CCN4CCC(O)CC4)c4ccc(-c5cncs5)cc4)nc3cc2C1 (racemic) [Example 185, rac-(7S)-7-tert-butyl-N-[rac-(1R)-3-(4-hydroxypiperidin-1-ium-1-yl)-1-(4-thiazol-5-ylphenyl)propyl]-5,6,7,8-tetrahydrothiazolo[5,4-b]quinoline-2-carboxamide; 2,2,2-trifluoroacetate] | 1.92 µM
CC(C)(C)[C@H]1CCc2nc3sc(C(=O)N[C@H](CCN4CCC(O)CC4)c4ccc(-c5csc(C(=O)O)c5)nc4)nc3cc2C1 (racemic) [Example 197, 4-[5-[rac-(1R)-3-(4-hydroxypiperidin-1-ium-1-yl)-1-[[rac-(7S)-7-tert-butyl-5,6,7,8-tetrahydrothiazolo[5,4-b]quinoline-2-carbonyl]amino]propyl]-2-pyridyl]thiophene-2-carboxylic acid; 2,2,2-trifluoroacetate] | 0.56 µM
CC(C)(C)[C@H]1CCc2nc3sc(C(=O)N[C@H](CCN4CCC(O)CC4)c4cccc(C(=O)N5CC(N)C5)c4)nc3cc2C1 (racemic) [Example 147, rac-(7S)-7-tert-butyl-N-[rac-(1R)-1-[3-(3-aminoazetidine-1-carbonyl)phenyl]-3-(4-hydroxy-1-piperidyl)propyl]-5,6,7,8-tetrahydrothiazolo[5,4-b]quinoline-2-carboxamide] | 0.64 µM
CC(C)(C)[C@H]1CCc2nc3sc(C(=O)N[C@H](CCN4CCC(O)CC4)c4cccc(C(=O)N5CCO[C@H]6CNC[C@H]65)c4)nc3cc2C1 (racemic) [Example 161, rac-(7S)-7-tert-butyl-N-[rac-(1R)-3-(4-hydroxy-1-piperidyl)-1-[3-[rac-(4aR,7aS)-3,4a,5,6,7,7a-hexahydro-2H-pyrrolo[3,4-b][1,4]oxazine-4-carbonyl]phenyl]propyl]-5,6,7,8-tetrahydrothiazolo[5,4-b]quinoline-2-carboxamide] | 1.95 µM
CC(C)(C)[C@H]1CCc2nc3sc(C(=O)N[C@H](CCN4CCOCC4)c4ccc(C(=O)N[C@H]5CNC[C@@H]5O)cc4)cc3cc2C1 (racemic) [Example 72] | 0.987 µM

The remaining compounds from weak to strong by EC50, led by results:

EC50 | Compound
1.79 µM | CC(C)(C)[C@H]1CCc2nc3sc(C(=O)N[C@H](CCN4CC(c5ccccn5)C4)c4cccc(NS(C)(=O)=O)c4)cc3cc2C1 (racemic) [Example 22, ammonium; methylsulfonyl-[3-[rac-(1R)-3-[3-(2-pyridyl)azetidin-1-y1]-1-[[rac-(6S)-6-tert-butyl-5,6,7,8-tetrahydrothieno[2,3-b]quinoline-2-carbonyl]amino]propyl]phenyl] azanide]
1.13 µM | CC(C)(C)[C@H]1CCc2nc3sc(C(=O)N[C@H](CCN[C@@H]4C[C@H](CO)[C@@H](O)[C@H]4O)c4ccc(-c5ccc(=O)[nH]c5)cc4)cc3cc2C1 (racemic) [Example 62, [rac-(1R,2S,3R,4R)-2,3-dihydroxy-4-(hydroxymethyl)cyclopentyl]-[rac-(3R)-3-[4-(6-oxo-1H-pyridin-3-yl)phenyl]-3-[rac-(6S)-6-tert-butyl-5,6,7,8-tetrahydrothieno[2,3-b]quinoline-2-carbonyl]amino]propyl] ammonium;formate]
0.696 µM | CN(CC[C@@H](NC(=O)c1cc2cc3c(nc2s1)CC[C@H](C(C)(C)C)C3)c1ccc(-c2ccc(=O)[nH]c2)cc1)C1CCCC1 (racemic) [Example 50, cyclopentyl-methyl-[rac-(3R)-3-[4-(6-oxo-1H-pyridin-3-yl)phenyl]-3-[rac-(6S)-6-tert-butyl-5,6,7,8-tetrahydrothieno[2,3-b]quinoline-2-carbonyl]amino]propyl] ammonium;formate]
0.674 µM | CC(C)(C)[C@H]1CCc2nc3sc(C(=O)N[C@H](CCN4CCCC5(CC5)C4)c4ccc(-c5ccc(=O)[nH]c5)cc4)cc3cc2C1 (racemic) [Example 47, rac-(6S)-6-tert-butyl-N-[rac-(1R)-3-(5-azoniaspiro[2.5]octan-5-yl)-1-[4-(6-oxo-1H-pyridin-3-yl)phenyl]propyl]-5,6,7,8-tetrahydrothieno[2,3-b]quinoline-2-carboxamide;formate]
0.637 µM | CC(C)(C)[C@H]1CCc2nc3sc(C(=O)N[C@H](CCN4CCC(C(=O)O)CC4)c4cccc(C(=O)NC5CNC5)c4)nc3cc2C1 (racemic) [Example 122, 1-[rac-(3R)-3-[3-(azetidin-1-ium-3-ylcarbamoyl)phenyl]-3-[rac-(7S)-7-tert-butyl-5,6,7,8-tetrahydrothiazolo [5,4-b]quinoline-2-carbonyl]amino]propyl] piperidine-4-carboxylic acid; 2,2,2-trifluoroacetate]
0.511 µM | CC(C)(C)[C@H]1CCc2nc3sc(C(=O)N[C@H](CCN4CCCC4)c4ccc(-c5ccc(=O)[nH]c5)cc4)cc3cc2C1 (racemic) [Example 33, rac-(6S)-6-tert-butyl-N-[rac-(1R)-1-[4-(6-oxo-1H-pyridin-3-yl)phenyl]-3-pyrrolidin-1-ium-1-yl-propyl]-5,6,7,8-tetrahydrothieno[2,3-b]quinoline-2-carboxamide;formate]
0.158 µM | CN1CC(NC(=O)c2cccc([C@@H](CCN3CCC(CCO)CC3)NC(=O)c3nc4cc5c(nc4s3)CC[C@H](C(C)(C)C)C5)c2)C1 (racemic) [Example 102, rac-(7S)-7-tert-butyl-N-[rac-(1R)-3-[4-(2-hydroxyethyl)-1-piperidyl]-1-[3-[(1-methylazetidin-1-ium-3-yl)carbamoyl]phenyl]propyl]-5,6,7,8-tetrahydrothiazolo[5,4-b] quinoline-2-carboxamide; 2,2,2-trifluoroacetate]
0.132 µM | CC(C)(C)[C@H]1CCc2nc3sc(C(=O)N[C@H](CCN4CCC(O)CC4)c4cccc(C(=O)N[C@@H]5CNC[C@H]5O)c4)nc3cc2C1 (racemic) [Example 135, rac-(7S)-7-tert-butyl-N-[rac-(1R)-3-(4-hydroxy-1-piperidyl)-1-[3-[[rac-(3R,4R)-4-hydroxypyrrolidin-3-yl]carbamoyl]phenyl]propyl]-5,6,7,8-tetrahydrothiazolo[5,4-b]quinoline-2-carboxamide]
0.12 µM | CC1([C@H]2CCc3nc4sc(C(=O)N[C@H](CCN5CCC(O)CC5)c5ccc(-c6c[nH]c(=O)c(F)c6)cc5)nc4cc3C2)CC1 [Example 234, (S)-N-((R)-1-(4-(5-fluoro-6-oxo-1,6-dihydropyridin-3-yl)phenyl)-3-(4-hydroxypiperidin-1-yl)propyl)-7-(1-methylcyclopropyl)-5,6,7,8-tetrahydrothiazolo[5,4-b]quinoline-2-carboxamide]
